Measured values from patent publication US12661362B2, “Methods for the prevention and treatment of hearing loss” (Ting Therapeutics LLC, priority 2020, dated 2026).

Tests used:
[1] = test system: FVB/NJ mice; test: Noise-induced hearing loss in FVB/NJ mice (ABR, DPOAE, wave-I, CtBP2 ribbon count); format: in vivo, mouse
Description: Now referring to FIGS. 4A-4F Niclosamide attenuates Cisplatin-induced hearing loss in FVB/NJ mice. Mice: Procedures used with mice were approved by the Institutional Animal Care and Use Committee (IACUC) at the Creighton University. For functional assessments including Cisplatin and noise exposure experiments 5 to 7-week-old FVB/NJ mice obtained from Jackson Laboratory (Bar Harbor, ME, USA) were used, with a mix of males and females across experiments. For the Cisplatin and noise studies, FVB/NJ mice were treated with 10 mg/kg Niclosamide, through intraperitoneal (IP) injection. Niclosamide, was dissolved in 1% DMSO in normal saline (0.9% NaCl solution) and vortexed multiple times before injections. Treatment started 24 hours before the Cisplatin or noise-exposure and continued once daily for 3 more days. Cisplatin was injected IP at 30 mg/kg divided into 2 doses per day. Animals were given 1 mL warm sterile normal saline subcutaneously twice a day before and for 7 days after Cisplatin treatment to prevent dehydration.
Now referring to FIG. 4A, ABR tests were performed 2-3 days before Cisplatin exposure, and 5 days post-Cisplatin exposure. The experimental groups included: Cisplatin and 1% DMSO, Cisplatin and Niclosamide, Niclosamide, only, and age-matched controls receiving normal saline. For the noise experiment, auditory tests were performed 2-3 days prior to noise exposure (paradigm described below), at post-exposure day-1 to monitor temporary threshold shift (TTS) and at post-exposure day-14 to monitor permanent threshold shift (PTS). Experimental groups included: noise-exposure and normal saline, noise-exposure and Niclosamide, Niclosamide-only, and age-matched controls. Following the final auditory function measurements, mice were euthanized, and cochleae were collected for morphological assessment. Based on the results of FVB/NJ ABR/DPOAE threshold variances and power analysis, ten FVB/NJ mice per group (5 of each sex) were used in this study.
Now referring to FIGS. 5B-5F, mice were injected with 10 mg/kg Niclosamide, per IP injection once per day for four consecutive days: one day before noise exposure (8-16 kHz at 105 dB SPL), the day of the noise exposure, and two days after noise exposure. Control animals received vehicle injections on the same schedule.
Now referring to FIG. 5B, Noise-induced ABR threshold shifts were obtained by subtraction of the pre-exposure from the post-exposure thresholds.
Now referring to FIG. 5C, DPOAE amplitudes were measured at f2 frequency ranging from 10 to 80 dB SPL in mice. […] A two-factor ANOVA (group x frequency) was used to compare pre-exposure amplitudes to Day 15 amplitudes.
Now referring to FIG. 5D, mean wave-I amplitudes at 10, 20, 28.3, and 40 kHz were measured at Day 15 post-noise exposure. Amplitudes from the 10-90 dB SPL stimulus intensity were compared between groups in the pre-noise test using a two-factor ANOVA (group x stimulus level), and no group differences were detected. At Day 15, only the 60-90 dB SPL stimulus levels were used because many of the subjects had no responses below 60 dB SPL.
Now referring to FIG. 5E to assess the protection of the ribbon synapses, the cochlear samples were immunostained with CtBP2, one of the most abundant proteins in synaptic ribbon bodies (Kujawa S G, et al. 2006). […] Now referring to FIG. 5F, […] hair cell count of ribbon synapses. […] In the same cochleae, OHCs were also counted. […] The frequency region of 16 kHz was used for CtbP2 ribbon count because this has been shown that ribbons are more abundant in this frequency region.

[2] = test system: zebrafish neuromast HCs; test: Niclosamide/ezetimibe combination hair cell protection in Cisplatin-treated zebrafish (Loewe synergy); format: in vivo; details: concentrations above 2 nM, cisplatin 300 μM
Description: Now referring to FIGS. 6A-6B, 5 dpf zebrafish were either incubated with vehicle (DMSO), cisplatin alone at 300 μM concentration, cisplatin and ezetimibe (0.002 μM to 13.3 μM), cisplatin and niclosamide (0.02 nM to 18.3 nM), or cisplatin and combination ezetimibe/niclosamide. After 6 hours, animals were transferred to fresh water for 1 hour and then sacrificed and processed for immunohistochemistry and HC count as described above. To further elucidate whether Niclosamide, synergizes with Nrf2 activators to protect zebrafish HCs from Cisplatin damage, we tested the extent of HC damage in presence of Niclosamide and a Nrf2 activator, ezetimibe.
A three-dimensional contour plot (A) showing dose response of neuromast hair cell protection in zebrafish treated with varying concentrations of niclosamide and ezetimibe mapped to synergy distribution. […] Other dose combinations showing synergy are shown in dark blue boxes. Dose combinations with scores of 0 and 1 show additive effect. *P<5×10−2; **P<10−3, ***P<10−4 versus control fish, One-sample t-test run by the Combenefit software44. Data is shown as mean±standard deviation.
Zebrafish were treated with combinations of Niclosamide (ranging from 0.02-18.3 nM) and EZ (ranging from 0.0183-13.3 μM).

[3] = test system: Nrf2; test: nrf2a morpholino knock-down zebrafish exposed to cisplatin and niclosamide; format: in vivo; details: non-injected and scrambled control zebrafish; 18.3 nM, cisplatin 300 μM
Description: Additionally to FIGS. 6A-6B, but not shown, 5 dpf zebrafish were incubated for 6 hours with vehicle, niclosamide (2 nM to 1.48 μM) and the nrf2 pathway activator […] (DEM) as a positive control, in order to evaluate the effect of niclosamide on ggcsh, a nrf2 downstream target. Ggcsh was previously validated as a Nrf2 downstream target in zebrafish. (Sheets, 2017). Following incubation, the total RNA was isolated from whole fish and processed to measure the induced expression of nrf2 downstream gene ggcsh. […] Additionally, Nrf2a morpholinos morphlinos were prepared, followed by incubation of the zebrafish morphants with cisplatin and/or niclosamide. Zebrafish eggs were injected with 4.5 ng of scrambled morpholino or nrf2a morpholino (5′-[…] SEQ NO: 1). At 3 dpf non-injected and morphant animals were exposed to vehicle, cisplatin (300 μM), cisplatin+niclosamide 18.3 nM or niclosamide alone for 6 hours. Following 1-hour recovery, animals were fixed and processed for immunohistochemistry. Nrf2a KD was confirmed by analyzing expression of Glutathione S-transferase P1 (gstp1), a downstream target, due to lack of proper antibody to detect Nrf2 protein in zebrafish.

**Q.** `O=C(Nc1ccc([N+](=O)[O-])cc1Cl)c1cc(Cl)ccc1O` [Niclosamide, 5-chloro-N-(2-chloro-4-nitrophenyl)-2-hydroxy-benzamide] was tested. Which “noise-induced ABR threshold shifts versus noise exposed group” value ([1]; 8 kHz to 63 kHz, Day 14, 10 mg/kg IP) did it give?
**A.** lower threshold shifts

**Q.** What about the “synaptic ribbon (CtBP2) survival versus saline-noise group” value ([1]; 16 kHz) of the same compound?
**A.** more synaptic ribbon survival

**Q.** What about the “proportion of surviving OHCs versus saline-noise animals” value ([1]; 32 kHz) of the same compound?
**A.** similar

**Q.** What about the “wave-I amplitudes versus noise-exposed group” value ([1]; 80 and 90 dB SPL, Day 15) of the same compound?
**A.** higher amplitudes

**Q.** And the “wave-I amplitude (cochlear nerve activity) versus age-matched controls” value ([1]; Day 15)?
**A.** comparable to aged matched controls

**Q.** What about the “DPOAE amplitudes versus noise-saline group” value ([1]; day-15 post-noise exposure) of the same compound?
**A.** significantly higher

**Q.** What about the “HC per neuromast counts, compound alone” value [2] of the same compound?
**A.** higher counts

**Q.** And the “hair cell number after cotreatment with cisplatin” value [3]?
**A.** significantly higher hair cell number
